Legend:
HCT116 cells [1] = assay: DNA fiber assay; assay type: cell-based, human
Protocol: Thus, the effect of DHS on DNA replication and cell cycle progression was investigated. Replication fork speeds were examined by DNA fiber assay (FIG. 7A). Briefly, DHS, hydroxyurea (Hu), or Aphidicolin (Aph) was added to HCT116 cells 2 hours prior to labeling of DNA with iododeoxyuridine (IdU) and/or chlorodeoxyuridine (CldU).

Topoisomerase II = Topoisomerase II decatenation assay; assay type: biochemical
Source text: In addition, resveratrol has been previously reported to interact with DNA grooves (Usha et al., 2006). […] A similar result with And-1, RRM1, and RRM2 was also observed in DHS resistant HCT116 cells (data not shown).

HCT116 cells [2] = assay: Clonogenic colony formation assay; assay type: cell-based, human; settings: 0 to 50 μM
Protocol: (§1) To confirm the cell killing effect of DHS, a clonogenic colony formation assay was conducted. […] The effect of DHS on growth of cancer cell lines was analyzed using The NCI Development Therapeutics Program (DTP).

RRM2 = target: T1, RRM2 (Homo sapiens, UniProt P31350); assay: Thermal shift assay in HCT116 cells, RRM2; assay type: cell-based
T1 construct: endogenous in cells; host or cells: HCT116
T1 sequence (P31350 1-389): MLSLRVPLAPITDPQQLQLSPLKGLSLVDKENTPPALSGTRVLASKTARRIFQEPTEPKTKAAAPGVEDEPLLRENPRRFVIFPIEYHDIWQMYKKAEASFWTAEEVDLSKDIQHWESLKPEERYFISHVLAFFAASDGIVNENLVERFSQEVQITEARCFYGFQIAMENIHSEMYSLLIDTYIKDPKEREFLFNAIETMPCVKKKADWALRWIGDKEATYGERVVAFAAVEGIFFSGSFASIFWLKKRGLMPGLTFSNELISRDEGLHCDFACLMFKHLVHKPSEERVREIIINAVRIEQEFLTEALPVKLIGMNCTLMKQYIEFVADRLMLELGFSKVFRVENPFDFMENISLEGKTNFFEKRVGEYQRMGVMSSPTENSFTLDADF
Protocol: (§2) To investigate binding of DHS to RRM1 and RRM2, a thermal shift assay was performed in HCT116 cells treated with DMSO (vehicle), resveratrol, DHS, gemcitabine, or hydroxyurea (Hu). Gemcitabine is known to bind RRM1 (Plunkett et al., 1995 and Chen et al., 2011), and Hu has been reported to bind RRM2 (Thelander et al., 1985). […] DHS stabilized RRM2 protein in a dose responsive manner (5 to 20 μM DHS; FIG. 11A). To rule out nonspecific effects of DHS on RRM2, an in vitro thermal shift assay was conducted. Purified RRM1 and RRM2 were mixed and then incubated with DHS or Hu for 4 hours before performing the assay.

RPK-9 cells = assay: Combination DHS and gemcitabine, CI, RPK-9 cells; assay type: cell-based, human; settings: RPK-9, in vitro, 10 μM DHS
Protocol: (§3) In vitro cytotoxicity assays. Cells growing in the Log phase were treated with various compounds at different concentrations (generally 0.137 to 100 μM) for 72 hours at 37° C. SRB assay (Vichai and Kirtikara, 2006) was performed and the absorbance at 510 nm was read with a plate reader. The proliferation rate was calculated according to the Manufacturer's instruction. The IC50 value for each compound was determined from dose-effect relationship using the CompuSyn software (version 1.0.1; CompuSyn, Inc, Paramus, N.J.) (Chou, 2006). Cell proliferating doubling time was monitored over a period of 72 hours.
Next, the effect of combined treatment with DHS and gemcitabine on pancreatic tumor cells was investigated.

[3] = system: HCT116 cells, U2OS cells, MDA-231/GFP cells, and PANC-1 cells; assay: Cytotoxicity across the four cancer cell lines (SAR summary); assay type: cell-based
Protocol: as §3
Based on identification of resveratrol as a lead compound in the drug screening assays, the anti-cancer activity of synthetic resveratrol analogs (FIG. 2) was next investigated and compared to resveratrol using HCT116 cells, U2OS cells, MDA-231/GFP cells, and PANC-1 cells.
The structure activity relationship (SAR) of the derivatives of resveratrol were considered.

purified RRM2 protein = purified RRM2 protein (Homo sapiens, UniProt P31350); assay: In vitro thermal shift assay with purified protein; assay type: binding; settings: purified RRM1 and RRM2 mixed, incubated 4 hours
Protocol: as §2

MDA-231/GFP = assay: In vitro cytotoxicity (SRB assay), MDA-231/GFP; assay type: cell-based; settings: Homo sapiens, MDA-MB-231, 72 hours
Protocol: (§4) Cell lines and cell culture. HCT116, U205, PANC-1, MDA-231 cell lines were purchased from the American Type Culture Collection (Rockville, Md., US). Cells were cultured in the DMEM medium (Lonza, Basel, Switzerland) containing 10% fetal bovine serum (Gibco, Grand Island, N.Y., US), 100 Units/ml penicillin, 100 Units/mL streptomycin, […] L-glutamine (Gibco, Grand Island, N.Y., US) at 37° C. in a humidified atmosphere with 5% CO2.
as §3, with “Cells growing in the Log phase were treated with various compounds at different concentrations (generally 0.137 to 100 μM) for 72 hours at 37° C.” left out

U2OS = assay: In vitro cytotoxicity (SRB assay), U2OS; assay type: cell-based; settings: Homo sapiens, 72 hours
Protocol: as §4
as §3, with “Cells growing in the Log phase were treated with various compounds at different concentrations (generally 0.137 to 100 μM) for 72 hours at 37° C.” left out

HCT116 = assay: In vitro cytotoxicity (SRB assay), HCT116; assay type: cell-based; settings: Homo sapiens, HCT-116, 72 hours
Protocol: as §4
as §3, with “Cells growing in the Log phase were treated with various compounds at different concentrations (generally 0.137 to 100 μM) for 72 hours at 37° C.” left out

SKOV3-CP7 = assay: DHS and cisplatin, SKOV3-CP7 cells; assay type: cell-based, human
Source text: The effect of DHS on a human SKOV3 ovarian cell line and its cisplatin-resistant subline, SKOV3/CP7, was investigated.

cancer cell lines = assay: NCI Development Therapeutics Program cell line growth; assay type: cell-based; settings: NCI DTP cell lines
Protocol: as §1

[4] = system: phosphorylated histone 2AX; assay: γH2AX immunostaining; assay type: cell-based, human; settings: HCT116 cells, 10 μM for 12 hours

Compound: Oc1ccc(/C=C/c2ccc(O)cc2)cc1 [DHS, 4,4′-trans-dihydroxystilbene]
- Rate of replication fork progression (folk speed) (HCT116 cells [1]): significantly reduced
- DNA replication stalling (HCT116 cells [1]; added 2 hours prior to labeling): dramatically caused DNA replication stalling
- Topoisomerase II activity (decatenation of kDNA) (Topoisomerase II): inhibits Topoisomerase II activity
- Colony formation (HCT116 cells [2]): stronger suppression effect on HCT116 cell colony formation than resveratrol
- RRM2 levels in thermal shift assay (binding) (RRM2): binds to RRM2
- Resensitisation to gemcitabine (RPK-9 cells): resensitized the gemcitabine-resistant pancreatic cancer line, RPK-9, to gemcitabine
- Potency relative to resveratrol according to the IC50 values [3]: 10 times
- IC50 ([3]; range over four cell lines): 2300 to 22000 nM
- Stabilisation of purified RRM2 after high temperature incubation (purified RRM2 protein): stabilized purified RRM2 protein
- IC50 (MDA-231/GFP): 5320 ± 3380 nM
- IC50 (U2OS): 1230 ± 730 nM
- IC50 (HCT116): 2300 ± 780 nM
- Re-sensitisation to cisplatin (SKOV3-CP7): re-sensitized the SKOV3/CP7 cells to cisplatin
- Sensitivity to DHS alone (SKOV3-CP7): sensitive to DHS treatment alone
- Cancer cell growth (GI50) compared to resveratrol (cancer cell lines): improved effect on suppressing cancer cell growth as compared to resveratrol
- Levels of γH2AX [4]: Increased levels of phosphorylated histone 2AX

Source: patent US11160767B2, “4,4′-trans-dihydroxystilbene for use in treating cancer” (The George Washington University, a Congressionally …, priority 2017, dated 2021)
